PubChem BioAssay AID489041 (Sanford-Burnham Center for Chemical Genomics, 2010)
pIC50: −log10 of the molar value. Activity calls are given as the source filed them. No rule for the calls is given here.

tested on: HEK-293T NF-kB luciferase reporter counterscreen, luminescence; assay: inhibitors of HEK-293T NF-kB luciferase – HEK-293T cells, luminescence, counter-screen for T-cell antigen receptor NF-kB inhibitors, dose response (AID 489041)

**Q.** With O=C(Nc1ccc(S(=O)(=O)N2CCCC2)cc1)c1ccc(CN2CCc3ccccc3C2)cc1 as the compound, how does the pIC50 read?
**A.** 6.14

**Q.** Which IC50 does the source give for CCOC(=O)c1ccc(Nc2nc(N)c3cc(OC)c(OC)cc3n2)cc1 here?
**A.** > 80000 nM (inactive)

**Q.** CC(C)(C)c1ccc(C(=O)O/N=C(\N)c2ccccc2)cc1 was tested. Which pIC50 did it give?
**A.** 6.51

**Q.** With Cc1ccc(Nc2cc(C)nn2-c2nc(C)cc(=O)[nH]2)cc1 as the compound, how does the IC50 read?
**A.** > 80000 nM (inactive)

**Q.** How did the pIC50 turn out when CC1C/C(=C/c2ccncc2)C(=O)/C(=C/c2ccncc2)C1 (configuration not stated) was run?
**A.** 5.24

**Q.** Cc1ccccc1NC1=C/C(=N\S(=O)(=O)c2cccs2)c2ccccc2C1=O was tested. Which pIC50 did it give?
**A.** 6.39

**Q.** How did the pIC50 turn out when COc1ccccc1C1=NOC(COc2ccc3c(C)cc(=O)oc3c2)C1 (configuration not stated) was run?
**A.** 5.31

**Q.** With CCN(CC)c1ccc(/C=N/NC(=O)c2nnn(-c3nonc3N)c2C(C)C)c(O)c1 as the compound, how does the pIC50 read?
**A.** 6.66

**Q.** With COC(=O)c1cn(NC(=O)c2cc([N+](=O)[O-])ccc2F)c(=O)c2ccccc12 as the compound, how does the pIC50 read?
**A.** 5.36

**Q.** C[C@]12CCC3C(CCC4=CC(O)CC[C@@]43/C=N/O)C1(O)CCC2C1=CC(=O)OC1 (some centres not stated) was tested. Which pIC50 did it give?
**A.** 6.48

**Q.** CCOC(=O)c1[nH]c(C)c(C(=O)c2cc(F)ccc2F)c1C was tested. Which pIC50 did it give?
**A.** 5.18

**Q.** With Cc1ccc(C)c(N=Nc2ccc(O)c3ncccc23)c1 as the compound, how does the IC50 read?
**A.** 21000 nM (inactive)

**Q.** COc1cc(/C=C/C(=O)c2ccc([N+](=O)[O-])o2)ccc1O was tested. Which pIC50 did it give?
**A.** 5.13

**Q.** CCN1/C(=C/c2ccc3cc(C)ccc3[n+]2CC)Sc2ccc3sccc3c21 was tested. Which IC50 did it give?
**A.** 63000 nM (inactive)

**Q.** With COC(=O)c1[nH]c2c(c1C)C(=O)CC(c1cccs1)C2 (configuration not stated) as the compound, how does the pIC50 read?
**A.** 5.72

**Q.** How did the pIC50 turn out when CC(=O)Nc1ccc(S(=O)(=O)N2c3ccc(F)cc3CCC2C)cc1 (configuration not stated) was run?
**A.** 4.84

**Q.** With CC(=O)Nc1ccc(S(=O)(=O)N2c3ccccc3C(C)=CC2(C)C)cc1 as the compound, how does the pIC50 read?
**A.** 5.32

**Q.** Which IC50 does the source give for O=C1C=CC(O)(c2cc(=O)c3c(O)cc(O)cc3o2)C=C1 here?
**A.** 20500 nM (inactive)

**Q.** With Cc1cc(-n2c(C)cc(C(=O)CSc3ncnc4ccccc34)c2C)no1 as the compound, how does the pIC50 read?
**A.** 5.52

**Q.** How did the pIC50 turn out when COc1ccc(C(=O)NNC(=O)c2ccccn2)cc1 was run?
**A.** 5.53

**Q.** With O=C1CC(c2cccc(Br)c2)c2cc3c(cc2N1)CCC3 (configuration not stated) as the compound, how does the pIC50 read?
**A.** 5.19

**Q.** With CCCCN1/C(=C/c2ccc3ccccc3[n+]2CC)Sc2ccccc21 as the compound, how does the pIC50 read?
**A.** 5.69

**Q.** O=C(c1ccc(CS(=O)c2ccccc2Cl)o1)N1CCN(c2ccccn2)CC1 (configuration not stated) was tested. Which pIC50 did it give?
**A.** 4.73

**Q.** CCOC(=O)N1CCN(C(=O)C2CCCN(Cc3nc(-c4ccc(Cl)cc4)oc3C)C2)CC1 (configuration not stated) was tested. Which pIC50 did it give?
**A.** 5.52

**Q.** N#C/C(=C\c1ccc(OCc2ccc(C(=O)O)cc2)cc1)C(=O)N1CCOCC1 was tested. Which pIC50 did it give?
**A.** 5.35

**Q.** With CC(C)CC[n+]1ccccc1/C=C/c1ccc(N(C)C)cc1 as the compound, how does the pIC50 read?
**A.** 5.79

**Q.** Which IC50 does the source give for Cc1c(C(=O)N/N=C/c2c(O)ccc3ccccc23)nnn1-c1nonc1N here?
**A.** > 80000 nM (inactive)

**Q.** CCCOCCOC(=O)c1[nH]c2c(c1C)C(=O)CC(c1cc(OC)ccc1OC)C2 (configuration not stated) was tested. Which pIC50 did it give?
**A.** 6.00

**Q.** With Cc1cc(C)cc(NC(=O)c2ccc([N+](=O)[O-])o2)c1 as the compound, how does the IC50 read?
**A.** 31500 nM (inactive)

**Q.** How did the pIC50 turn out when CCN(c1ccccc1)S(=O)(=O)c1ccc(C(=O)NC2CCN(Cc3ccccc3)CC2)cc1 was run?
**A.** 5.50

**Q.** Cc1ccc2oc(/N=C(\N)NC(=O)C(C)(C)C)nc2c1 was tested. Which pIC50 did it give?
**A.** > 6.80

**Q.** How did the pIC50 turn out when Cc1cccc(N(C)S(=O)(=O)c2ccc(-c3cnc(C4CC4)o3)cc2)c1 was run?
**A.** 6.24

**Q.** CCOc1ccc(NC(=O)c2cc3c(C)nc4ccccc4c3o2)cc1 was tested. Which pIC50 did it give?
**A.** 5.22

**Q.** With O=S(=O)(Nc1ccc(F)cc1Cl)c1ccc(-c2cnc(C3CC3)o2)cc1 as the compound, how does the pIC50 read?
**A.** 5.75

**Q.** How did the pIC50 turn out when COc1ccc(CC(=O)Nc2cccc(-c3nnc(-c4cccc(C)c4)o3)c2)cc1OC was run?
**A.** 5.91

**Q.** Cc1ccc2c(c1)Oc1ccc(NC(=O)CCl)cc1C(=O)N2 was tested. Which pIC50 did it give?
**A.** 5.57

**Q.** How did the pIC50 turn out when Cc1ccc(-c2nc(-c3ccccn3)no2)cc1 was run?
**A.** 5.42

**Q.** For Oc1ccc2ccccc2c1N=Nc1ccccn1, which IC50 is on record?
**A.** > 80000 nM (inactive)

**Q.** CC(C)CCOc1cccc(OCC(=O)Nc2ccncc2)c1 was tested. Which pIC50 did it give?
**A.** 5.71

**Q.** CC(C)(C)c1ccc(C(=O)Nc2ccc(Oc3cccnc3)nc2)cc1 was tested. Which pIC50 did it give?
**A.** 5.66

**Q.** CCOc1ccc(N(C)S(=O)(=O)c2ccc(-c3cc(C)no3)s2)cc1 was tested. Which pIC50 did it give?
**A.** 5.14

**Q.** With COc1cc2c(cc1O)CC[C@@H]1[C@@H]2CC[C@]2(C)[C@@H](O)CC[C@@H]12 as the compound, how does the IC50 read?
**A.** 23000 nM (inactive)

**Q.** How did the pIC50 turn out when O=C(COc1ccc2c(-c3ccccc3)cc(=O)oc2c1)Nc1cccnc1 was run?
**A.** 6.59

**Q.** With CCN(CC)c1ccc2nc3ccccc3[n+](CC)c2c1 as the compound, how does the pIC50 read?
**A.** 5.70

**Q.** How did the pIC50 turn out when CC(Oc1ccc(Cl)cc1Cl)C(=O)Nc1ccncc1 (configuration not stated) was run?
**A.** 5.17

**Q.** Cc1cccc(NS(=O)(=O)c2ccc(-c3cnc(C4CC4)o3)cc2)c1C was tested. Which pIC50 did it give?
**A.** 5.77

**Q.** Cc1c(C(=O)OCC(C)C)[nH]c2c1C(=O)CC(c1cccs1)C2 (configuration not stated) was tested. Which pIC50 did it give?
**A.** 6.39

**Q.** With CCN(CC)c1ccc(-c2nn3c(-c4n[nH]c5c4CCC5)nnc3s2)cc1 as the compound, how does the pIC50 read?
**A.** 5.67

**Q.** How did the pIC50 turn out when COC(=O)c1ccc2nc(Nc3nc4c(F)cc(F)cc4s3)sc2c1 was run?
**A.** 6.29

**Q.** O=C(Nc1ccc(Oc2cccnc2)nc1)c1ccc(C(F)(F)F)cc1 was tested. Which pIC50 did it give?
**A.** 5.82

**Q.** CCOc1ccc(Br)cc1C1=CC(=O)C[C@H](c2ccc(OC)cc2)C1 was tested. Which pIC50 did it give?
**A.** 4.86

**Q.** With COc1cc(C(=O)Nc2ccc3c(c2)CCN3C(C)=O)cc(OC)c1OC as the compound, how does the pIC50 read?
**A.** 5.32

**Q.** With COc1ccccc1C(=O)Nc1nc2ccccc2s1 as the compound, how does the pIC50 read?
**A.** 6.10

**Q.** O=C1C=C(c2ccc3ncccc3c2)C[C@@H](c2ccc3c(c2)OCO3)C1 was tested. Which pIC50 did it give?
**A.** 4.95

**Q.** COc1cc(-c2noc(C)c2/C=C/c2ccc(OC(C)=O)cc2)cc(OC)c1OC was tested. Which pIC50 did it give?
**A.** 5.56

**Q.** Which IC50 does the source give for CC(=O)NC(c1ccc(C(C)C)cc1)c1ccc2cccnc2c1O (configuration not stated) here?
**A.** 40700 nM (inactive)

**Q.** How did the pIC50 turn out when O=C(CSc1nnc(Cn2nnc3ccccc32)o1)N(Cc1ccc(F)cc1)c1ccccc1 was run?
**A.** 6.03

**Q.** Cc1ccc(C)c(NS(=O)(=O)c2ccc(-c3cnc(C4CC4)o3)cc2)c1 was tested. Which pIC50 did it give?
**A.** 6.38

**Q.** How did the pIC50 turn out when Cc1ccc(C(=O)Nc2cnc3ccccc3c2)cc1 was run?
**A.** 6.08

**Q.** How did the pIC50 turn out when COc1ccccc1N=C(C)C1=C(O)CC(c2ccccc2)CC1=O (configuration not stated) was run?
**A.** 6.11

**Q.** How did the pIC50 turn out when O=C(Nc1ccc(N2CCOCC2)cc1)c1ccc(Cl)c(S(=O)(=O)N2CCCCC2)c1 was run?
**A.** 5.94

**Q.** How did the pIC50 turn out when COc1cc(-c2noc(C)c2-c2ccc(N(C)C)nc2)cc(OC)c1OC was run?
**A.** 5.71

**Q.** With Oc1ccc(Nc2nc3ccccc3nc2Nc2ccc(O)cc2)cc1 as the compound, how does the pIC50 read?
**A.** 4.75

**Q.** How did the IC50 turn out when CCS(=O)(=O)c1ncc(Cl)c(C(=O)Nc2ccc(S(=O)(=O)N(C)c3ccccc3)cc2)n1 was run?
**A.** 20200 nM (inactive)

**Q.** How did the IC50 turn out when Clc1cccc(Cl)c1/C=N/Nc1c(Cl)cncc1Cl was run?
**A.** 36700 nM (inactive)

**Q.** With CCCCC(=O)NC(c1ccc(N(C)C)cc1)c1ccc2cccnc2c1O (configuration not stated) as the compound, how does the IC50 read?
**A.** > 80000 nM (inactive)

**Q.** With COc1cccc(/C=N/NC(=O)c2[nH]nc3c2CCc2ccccc2-3)c1O as the compound, how does the pIC50 read?
**A.** 6.68

**Q.** How did the pIC50 turn out when O=S(=O)(C/C(=C/CO)S(=O)(=O)c1ccccc1)c1ccccc1 was run?
**A.** 5.17

**Q.** How did the pIC50 turn out when N/C(=N\OCc1ccc([N+](=O)[O-])cc1)c1ccccn1 was run?
**A.** 5.75

**Q.** O=C(N/N=C/c1c(O)ccc2ccccc12)c1ccc(Br)o1 was tested. Which pIC50 did it give?
**A.** 6.26

**Q.** How did the pIC50 turn out when CC(C)Cn1c(N)c(C(=O)CSc2ccc3c(c2)OCCO3)c(=O)n(C)c1=O was run?
**A.** 6.07

**Q.** For C#CC[N+](C)(C)CCCCCCCCCCCC, which IC50 is on record?
**A.** 25100 nM (inactive)
